Here are results for two compounds from patent US6562244B1, “Method and apparatus for disinfecting drainage” (Ebara Corporation, priority 1998, dated 2003).

For data set [1], the system named is coliform organisms. Kind of data set: Disinfection of wet-weather sewage by the system of FIGS. 1 to 3 (Example 3), coliform organism count. The format is cell-based. Here is the method:
Examples of the present invention will now be described, but the invention is not restricted thereby. Drainage was treated by the system show in FIGS. 1 to 3. In all of RUN 1 to RUN 4, the amount of the disinfectant being 0 (zero) corresponds to the incoming water quality of wet-weather sewage which has flowed into rainwater removal facilities.

Data set [2] relates to coliform organisms. The experiment in a line: Sterilization test of treated drainage from marine product processing (Example 2). The format is cell-based. To be noted: for Coliform organism count: marine product processing drainage (initial 320000 CFU/mL). Here is the method:
Drainage from the marine product processing industry was subjected to coagulation, pressurization, floating, and separation. Then, the drainage was further treated by an activated sludge process. The resulting drainage was used as water to be treated. A sterilization test of this water to be treated was conducted, with the concentration of a disinfectant being varied. [table]

Another data set relates to aquatic organisms. The following applies: calculated as active chlorine (Cl2); aquatic organisms in public waters; cited from earlier work.
The subject of data set [3] is coliform organisms. The experiment in a line: Sterilization test of coliform organisms in treated sewage (Example 1). The format is cell-based. To be noted: for Coliform organism count: treated sewage (initial 12600 CFU/mL). How it is done:
Treated sewage containing coliform organisms, as water to be treated, was subjected to a sterilization test. As a disinfectant, each of 1-bromo-3-chloro-5,5-dimethylhydantoin (hereinafter referred to as BCDMH) (Example 1) and sodium hypochlorite (Comparative Example 1) was used. The sterilization test of coliform organisms was conducted, with the concentration of the disinfectant being varied.
In the present specification, the proportion of the disinfectant added is expressed as active chlorine for each of the bromine-based disinfectant and the chlorine-based disinfectant, and is expressed as “mg/L as Cl” calculated as the active chlorine concentration. For example, when 1 g of BCDMH is added to 1 liter of drainage, its concentration is 540 mg/L as Cl.

[4] abbreviates: disinfectant added 2.0 mg/L as Cl.

In brackets after ≈: the same amount, converted by molar mass.

One may read the LC50 as the concentration lethal to half of the exposed cells or organisms. Regarding `CC1(C)C(=O)N(Cl)C(=O)N1Br` [BCDMH, 1-bromo-3-chloro-5,5-dimethylhydantoin], the Coliform organism count with coliform organisms [1] (RUN 1, sewage 120 m^3/h (incoming 97 × 10^3), amount added 6.0 mg/l as chlorine (Cl2)) is on record as 83 × 10^2 CFU/ml; in the data set on coliform organisms [1] (RUN 1, sewage 120 m^3/h (incoming 97 × 10^3), amount added 12.0 mg/l as chlorine (Cl2)), “less than 3,000 CFU/ml”; in the data set on coliform organisms [1] (RUN 2, sewage 250 m^3/h (incoming 68 × 10^3), amount added 5.0 mg/l as chlorine (Cl2)), “less than 3,000 CFU/ml”; with coliform organisms [1] (RUN 2, sewage 250 m^3/h (incoming 68 × 10^3), amount added 5.0 mg/l as chlorine (Cl2), listed as A) it was 18 × 10^2 CFU/ml; with coliform organisms [1] (RUN 2, sewage 250 m^3/h (incoming 68 × 10^3), amount added 10.0 mg/l as chlorine (Cl2)), 20 or less CFU/ml; with coliform organisms [1] (RUN 3, sewage 530 m^3/h (incoming 39 × 10^3), amount added 3.0 mg/l as chlorine (Cl2)), 28 × 10^2 CFU/ml. Also, the Coliform organism count in the data set with coliform organisms [2] (disinfectant added 2.0 mg/L as C1) is recorded as 52000 CFU/mL; with coliform organisms [2] (disinfectant added 3.0 mg/L as C1) it was 1200 CFU/mL; with coliform organisms [2] (disinfectant added 3.5 mg/L as C1), “Not detected”; with coliform organisms [3] (disinfectant added 0.5 mg/L as Cl), 10800 CFU/mL; in the data set on coliform organisms [3] (disinfectant added 1.5 mg/L as Cl), 70 CFU/mL; in the data set with coliform organisms [3] (setting [4]), “Not detected”. Further, in the data set on coliform organisms [1] (RUN 3, sewage 530 m^3/hour, amount added 3 to 4.5 mg/l), the “duration of contact with combined sewer overflow for appropriate disinfection” value was “about 50 seconds”. The “concentration exhibiting germicidal effect relative to the concentration of sodium hypochlorite” value with coliform organisms [2] (marine product processing drainage, Example 2) is given as “⅓”; in the data set with coliform organisms [3] (treated sewage, Example 1), “a half or less”. Also, the LC50 in the data set on aquatic organisms was 0.4 µg/mL (≈ 1.66 µM). In addition, the “reaction time to show sufficient effect” value with coliform organisms [3] (treated sewage, Example 1) was determined as 1 min.
For `OCl` [Sodium hypochlorite, sodium hypochlorite, reference compound], the Coliform organism count is on record as 19 × 10^3 CFU/ml in the data set on coliform organisms [1] (RUN 4, sewage 250 m^3/h (incoming 46 × 10^3), amount added 30 mg/l as chlorine (Cl2)); > 3,000 CFU/ml in the data set with coliform organisms [1] (RUN 4, sewage 250 m^3/h (incoming 46 × 10^3), amount added 60 mg/l as chlorine (Cl2)); 41 × 10^2 CFU/ml in the data set on coliform organisms [1] (RUN 4, sewage 250 m^3/h (incoming 46 × 10^3), amount added 60 mg/l as chlorine (Cl2), listed as B); 135000 CFU/mL in the data set on coliform organisms [2] (disinfectant added 6 mg/L as C1); 1900 CFU/mL in the data set on coliform organisms [2] (disinfectant added 8 mg/L as C1); 900 CFU/mL with coliform organisms [2] (disinfectant added 10 mg/L as C1). Also, the Coliform organism count entry in the data set with coliform organisms [2] (disinfectant added 12 mg/L as C1) is reported as “Not detected”; with coliform organisms [3] (setting [4]), 11800 CFU/mL; with coliform organisms [3] (disinfectant added 2.5 mg/L as Cl), 2800 CFU/mL; with coliform organisms [3] (disinfectant added 3.0 mg/L as Cl), 300 CFU/mL; in the data set with coliform organisms [3] (disinfectant added 3.5 mg/L as Cl), “Not detected”. The “reaction time to show sufficient effect” value in the data set with coliform organisms [3] (treated sewage, Example 1) is reported as “more than 5 minute”.
